Source: patent US20070179120A1, “HYDROXYL COMPOUNDS AND COMPOSITIONS FOR CHOLESTEROL MANAGEMENT AND RELATED USES” (ESPERION THERAPEUTICS, INC., priority 2003, published 2007)
Like-named read-outs stand apart in the source and are kept apart here.

Key:
[1] = system: obese female Zucker rats; experiment: Oral daily treatment of obese female Zucker rats for fourteen days: serum lipids, glycemic control indicators, body weight; type: in vivo, rat; settings: for change in vivo at 100 mg/kg/day / change in vivo at 100 mg/kg: Rattus norvegicus, 336 h; for change in vivo at 100 mg/kg/day: 100 mg/kg/day oral gavage, read-out: % wt. gain; for change in vivo at 100 mg/kg / HDL-C/non-HDL-C: 100 mg/kg/day oral; for HDL-C/non-HDL-C: serum ratio
Procedure: In a number of different experiments, illustrative compounds of the invention are administered daily at a dose of up to 100 mg/kg to chow fed obese female Zucker rats for fourteen days in the morning by oral gavage in 1.5% carboxymethylcellulose/0.2% Tween 20 or 20% ethanol/80% polyethylene glycol (dosing vehicles). Animals are weighed daily. Animals are allowed free access to rodent chow and water throughout the study except on days of blood sampling where food is restricted for six hours prior to blood sampling. Blood glucose is determined after the 6 hour fast in the afternoon without anesthesia from a tail vein. Serum is also prepared from pretreatment blood samples subsequently obtained from the orbital venous plexus (with O2/CO2 anesthesia) and following the fourteenth dose at sacrifice from the heart following O2/CO2 anesthesia. Serums are assayed for lipoprotein cholesterol profiles, triglycerides, total cholesterol, Non-HDL cholesterol, HDL cholesterol, the ratio of HDL cholesterol to that of Non-HDL cholesterol, insulin, non-esterified fatty acids, and beta-hydroxy butyric acid. The percent body weight gain and the ratio of liver to body weight is also determined. These are shown as absolute values or as a percent change of the pretreatment values in Table 1 for compounds A-K and in Table 2 for compounds L-M. [drawing 111]

[2] = system: primary rat hepatocytes; experiment: Inhibition of lipid synthesis ([1-14C]-acetate incorporation) in primary rat hepatocytes; type: cell-based; settings: Hepatocyte, 4 hours incubation, 0-300 μM
Procedure: Compounds were tested for inhibition of lipid synthesis in primary cultures of rat hepatocytes. Male Sprague-Dawley rats were anesthetized with intraperitoneal injection of sodium pentobarbital (80 mg/kg). Rat hepatocytes were isolated essentially as described by the method of Seglen (Seglen, P. O. Hepatocyte suspensions and cultures as tools in experimental carcinogenesis. J. Toxicol. Environ. Health 1979, 5, 551-560). Hepatocytes were suspended in Dulbecco's Modified Eagles Medium containing 25 mM D-glucose, 14 mM HEPES, 5 mM L-glutamine, 5 mM leucine, 5 mM alanine, 10 mM lactate, 1 mM pyruvate, 0.2% bovine serum albumin, 17.4 mM non-essential amino acids, 20% fetal bovine serum, 100 nM insulin and 20 μg/mL gentamycin) and plated at a density of 1.5×10^5 cells/cm^2 on collagen-coated 96-well plates. Four hours after plating, media was replaced with the same media without serum. Cells were grown overnight to allow formation of monolayer cultures. Lipid synthesis incubation conditions were initially assessed to ensure the linearity of [1-^14C]-acetate incorporation into hepatocyte lipids for up to 4 hours. Hepatocyte lipid synthesis inhibitory activity was assessed during incubations in the presence of 0.25 μCi [1-^14C]-acetate/well (final radiospecific activity in assay is 1 Ci/mol) and 0, 1, 3, 10, 30, 100 or 300 μM of compounds for 4 hours. At the end of the 4-hour incubation period, medium was discarded and cells were washed twice with ice-cold phosphate buffered saline and stored frozen prior to analysis. To determine total lipid synthesis, 170 μl of MicroScint-E® and 50 μl water was added to each well to extract and partition the lipid soluble products to the upper organic phase containing the scintillant. Lipid radioactivity was assessed by scintillation spectroscopy in a Packard TopCount NXT.

[3] = system: female Syrian hamsters; experiment: Chow-fed female Syrian hamsters, 3 weeks of oral dosing: lipoprotein cholesterol, triglycerides, glucose, insulin, body weight, bile acids; type: in vivo; settings: chow-fed hamster, 100 mg/kg/day oral, 3 weeks of dosing
Procedure: Ten week old female Syrian hamsters were acclimated for 21 days to a shortened light and dark cycle (10 hours of light/14 hours of darkness). During the acclimation and drug intervention period animals were allowed free access to rodent chow (Purina 5001) and water except for a 6 hour period prior to blood sampling. Following the 21 day acclimation period ESP 55015 was administered daily for three weeks, between 8 10 AM, at a dose of 100 mg/Kg by oral gavage in a dosing vehicle consisting of 20% Ethanol/80% Polyethylene glycol 200 [v/v]. Prior to and in the afternoon following the 13th and 21st doses blood samples were collected, between 2 PM and 4 PM, by administering O2/CO2 anesthesia and bleeding from the orbital venous plexus. All blood samples were processed for separation of serum. Serum samples were subsequently assayed for total cholesterol, total cholesterol lipoprotein profiles (HDL cholesterol, LDL cholesterol and VLDL cholesterol), the ratio of HDL cholesterol, LDL cholesterol and VLDL cholesterol), the ratio of HDL cholesterol to non HDL cholesterol (LDL C, VLDL C) and triglycerides (Table 4). Percent body weight gain and ratio of liver weight to body weight were also determined.

[4] = blood glucose after 6 hour fast, read-out: Glucose (Percent of Pre-treatment)
[5] = serum beta-hydroxy butyric acid, read-out: BHA (Percent of Pre-treatment)
[6] = serum non-esterified fatty acids, read-out: NEFA (Percent of Pre-treatment)
[7] = serum total cholesterol, read-out: TC (Percent of Pre-treatment)
[8] = serum triglycerides, read-out: TG (Percent of Pre-treatment)
[9] = serum, read-out: HDL-C (Percent of Pre-treatment)
[10] = serum, read-out: Insulin (Percent of Pre-treatment)
[11] = serum, read-out: Non-HDL-C (Percent of Pre-treatment)

Row | Compound | melting point | change in vivo at 100 mg/kg/day [1] | change in vivo at 100 mg/kg [1, 4] | change in vivo at 100 mg/kg [1, 5] | change in vivo at 100 mg/kg [1, 6] | change in vivo at 100 mg/kg [1, 7] | change in vivo at 100 mg/kg [1, 8] | change in vivo at 100 mg/kg [1, 9] | change in vivo at 100 mg/kg [1, 10] | change in vivo at 100 mg/kg [1, 11] | HDL-C/non-HDL-C [1] | IC50 [2] | further results
1 | CC(C)(CO)CCCCC(O)CCCCC(C)(C)CO [Compound 6.1, 2,2,12,12-Tetramethyltridecane-1,7,13-triol] | 72 to 74 °C | – | – | – | – | – | – | – | – | – | – | – | –
2 | CC(C)(CO)CCCCCCCC(O)CCCCCCCC(C)(C)CO [H] | – | 9% | 19% | 97% | -30% | 61% | -36% | 115% | -30% | -5% | 3 | 2.6 µM | –
3 | CC(C)(CO)CCCCC(CCCCC(C)(C)CO)C(C)(C)O [Compound 6.12, 7-(1-Hydroxy-1-methylethyl)-2,2,12,12-tetramethyltridecane-1,13-diol] | 72 to 74 °C | – | – | – | – | – | – | – | – | – | – | – | –
4 | CCCCC(O)CCCCCC(C)(C)C(=O)O (stereo not shown) [L] | – | 12% | 13% | 88% | -27% | -3% | -37% | -2% | -37% | -11% | 4 | – | –
5 | CC(C)(CCCCCC(O)CCCCCC(C)(C)CC(=O)c1cccnc1)COC(=O)c1cccnc1 (stereo not shown) [Compound 6.37, Nicotinic acid 8-hydroxy-2,2,14,14-tetramethyl-15-nicotinoylpentadecyl ester] | 65 to 67 °C | – | – | – | – | – | – | – | – | – | – | – | –
6 | CC(C)(CO)CCCCCC(O)CCCCCC(C)(C)CO [Compound B] | – | 1% | -3% | 199% | -28% | 105% | -87% | 237% | -52% | -81% | 35 | 5.1 µM | Bile Acids [3]: 67,108 ± 17,529 ng/ml; Body wt. [3]: 146 ± 2 gm; Glucose [3]: 122 ± 3; Insulin [3]: 2.4 ± 0.7; HDL-C ([3]; serum): 63 ± 4 mg/dL; LDL-C ([3]; serum): 44 ± 4 mg/dL; TG ([3]; serum): 128 ± 37 mg/dL; VLDL-C ([3]; serum): 4 ± 2 mg/dL
7 | CC(C)(CO)CCCCCC(O)CCCCC(C)(C)CO (stereo not shown) [Compound 6.27, 2,2,13,13-Tetramethyltetradecane-1,7,14-triol] | 79 to 80 °C | – | – | – | – | – | – | – | – | – | – | – | –
8 | CC(C)(CO)CCCCCC(O)CCCCC(C)(C)CO (stereo not shown) [D] | – | – | – | – | – | – | – | – | – | – | – | 1.6 µM | –
9 | CC(C)(CCCCCC(O)CCCCCC(C)(C)C(=O)O)C(=O)O [C] | – | 3% | -11% | 171% | -42% | 105% | -90% | 169% | -57% | -80% | 40 | 1 µM | –
10 | CC(C)(CO)CCCCCC(O)CCCCCC(C)(C)CO [Compound 6.17, 2,2,14,14-Tetramethylpentadecane-1,8,15-triol] | 71 to 75 °C | – | – | – | – | – | – | – | – | – | – | – | –
11 | CC(C)(CO)CCCCC(CO)CCCCC(C)(C)CO [J] | – | 12% | 21% | 183% | -32% | -6% | -23% | -2% | -11% | -12% | 2 | 17 µM | –
12 | CC(C)(CO)CCCCC(O)CCCCC(C)(C)CO [F] | – | 3% | 10% | – | -43% | 53% | -46% | 222% | -4% | -15% | 2 | 6.4 µM | –
13 | CC(C)(CCCCC(O)CCCCC(C)(C)C(=O)O)C(=O)O [A] | – | 12% | -2% | 231% | -11% | 14% | -59% | 50% | 43% | -41% | 5 | 3.4 µM | –
14 | CC(C)(CCCCC(CO)CCCCC(C)(C)C(=O)O)C(=O)O [K] | – | 10% | 3% | 253% | -32% | 35% | -45% | 62% | 41% | -38% | 9 | 14 µM | –
15 | CC(C)(CO)CCCCCCC(O)CCCCCCC(C)(C)CO [Compound 6.32, 2,2,16,16-Tetramethylheptadecane-1,9,17-triol] | 75 to 77 °C | – | – | – | – | – | – | – | – | – | – | – | –
16 | CC(C)(CO)CCCCC(O)CCCCC(C)(C)C(=O)O (stereo not shown) [Compound I] | – | – | – | – | – | – | – | – | – | – | – | 2.3 µM | –
17 | CC(C)(CCCCC(O)CCCC(C)(C)C(=O)O)C(=O)O (stereo not shown) [E] | – | – | – | – | – | – | – | – | – | – | – | 8.3 µM | –
18 | CC(C)(CO)CCCCCCC(O)CCCCCCC(C)(C)CO [G] | – | 9% | 14% | 163% | -62% | 21% | -80% | 68% | -38% | -68% | 12 | 7.8 µM | –
19 | CC(C)(CO)Cc1cccc(C(O)c2cccc(CC(C)(C)CO)c2)c1 [Compound 6.46, 3-(3-{Hydroxy-[3-(3-hydroxy-2,2-dimethylpropyl)-phenyl]-methyl}-phenyl)-2,2-dimethylpropan-1-ol] | 98 to 99 °C | – | – | – | – | – | – | – | – | – | – | – | –
